Data on nine compounds can be found in patent publication US5523460A, “4-fluorobiphenyl derivatives” (Fujirebio Inc., priority 1993, dated 1996).

For one assay, the target named is T1, HMG-CoA Reductase (Rattus norvegicus, UniProt P51639).
T1 sequence (P51639 1-887): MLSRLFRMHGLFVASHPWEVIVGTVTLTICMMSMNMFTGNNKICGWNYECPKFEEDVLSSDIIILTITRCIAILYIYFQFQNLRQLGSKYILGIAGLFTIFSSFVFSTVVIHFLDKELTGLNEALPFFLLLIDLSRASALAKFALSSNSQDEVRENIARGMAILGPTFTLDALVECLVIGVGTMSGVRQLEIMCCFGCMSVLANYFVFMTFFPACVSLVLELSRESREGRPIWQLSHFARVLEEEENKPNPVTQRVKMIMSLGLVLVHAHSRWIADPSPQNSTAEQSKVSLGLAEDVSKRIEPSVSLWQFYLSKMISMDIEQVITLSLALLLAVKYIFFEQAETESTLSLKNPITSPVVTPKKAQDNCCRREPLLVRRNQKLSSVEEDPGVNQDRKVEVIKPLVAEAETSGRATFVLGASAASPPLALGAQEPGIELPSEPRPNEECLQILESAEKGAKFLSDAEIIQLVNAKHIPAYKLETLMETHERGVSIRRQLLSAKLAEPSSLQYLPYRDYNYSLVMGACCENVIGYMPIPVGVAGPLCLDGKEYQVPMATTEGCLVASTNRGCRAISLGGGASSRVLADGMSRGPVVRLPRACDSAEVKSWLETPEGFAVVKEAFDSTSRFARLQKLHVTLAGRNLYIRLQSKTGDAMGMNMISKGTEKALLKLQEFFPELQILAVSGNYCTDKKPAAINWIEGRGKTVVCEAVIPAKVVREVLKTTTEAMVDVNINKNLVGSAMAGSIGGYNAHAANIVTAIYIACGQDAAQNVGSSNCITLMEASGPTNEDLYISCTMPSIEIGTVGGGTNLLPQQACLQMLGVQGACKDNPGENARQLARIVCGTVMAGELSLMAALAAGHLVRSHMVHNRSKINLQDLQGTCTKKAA
The assay is described as follows: biochemical. Conditions: method of J. Biol. Chem. Vol. 234, page 2835 (1959); read-out: HMG-CoA Reductase Inhibitory Activity IC50. As for the experimental part:
Test 1Determination of Inhibitory Activity on HMG-CoA Reductase
The inhibitory effect on HMG-CoA Reductase of each of representative examples of the 4-fluorobiphenyl derivatives prepared in the above-discussed examples was determined in accordance with the method described in Journal of Biological Chemistry (J. Biol. Chem.) Vol. 234, page 2835 (1959), and IC50 values were obtained.

In a further assay the test system is biosynthesis of sterol. The assay is described as follows: Determination of Inhibition of Sterol Synthesis (liver, after oral administration to rats). It counts as in vivo, SD rats. Conditions: Rattus norvegicus, 2 h, read-out: Inhibition of Sterol Synthesis. As to the method:
Test 2 Determination of Inhibition of Sterol Synthesis
Representative compounds (0.3 mg/5ml/kg) suspended in a 5% arabic gum solution were orally given to SD rats weighing 150 to 200 g. One hour later, ^14 C-acetic acid (100 μCi/kg) was intraperitoneally injected, and furthermore one hour later, liver was removed to determine the inhibitory activity of each of the compounds on the biosynthesis of sterol in accordance with the method described in European Journal of Biochemistry (Eur. J. Biochem.) Vol.77, page 31 (1977).

Read-outs that look alike come from different tables or passages of the source.

Turning to `COCCOc1cc(C(C)C)c(/C=C/C(O)CC(O)CC(=O)O)c(-c2ccc(F)cc2)c1OC` (centres unmarked), the half-inhibitory concentration (IC50) on HMG-CoA Reductase was 16.1 nM. The inhibition in vivo at 0.3 mg/kg in the assay with biosynthesis of sterol (po) is 71%.
The matching figures for `COCCOCCOc1c(OC)cc(C(C)C)c(/C=C/C(O)CC(O)CC(=O)O)c1-c1ccc(F)cc1` (centres unmarked): 9.43 nM and 69%.
The matching figures for `COc1cc(C(C)C)c(/C=C/C(O)CC(O)CC(=O)O)c(-c2ccc(F)cc2)c1OC` (centres unmarked): 5.43 nM and 71%.
As for `COc1c(OCCO)cc(C(C)C)c(/C=C/C(O)CC(O)CC(=O)O)c1-c1ccc(F)cc1` (centres unmarked), on HMG-CoA Reductase, the IC50 was 20.4 nM. In the assay on biosynthesis of sterol (po), the inhibition in vivo at 0.3 mg/kg turned out to be 61%.
For `CCC(C)(C)C(=O)O[C@H]1C[C@@H](C)C=C2C=C[C@H](C)[C@H](CC[C@@H]3C[C@@H](O)CC(=O)O3)[C@H]21` [Simvastatin, reference compound], in the assay on biosynthesis of sterol (0.3 mg/5ml/kg oral in 5% arabic gum, SD rats, 14C-acetic acid (100 μCi/kg) i.p. 1 h later, liver removed 1 h after that), the inhibition in vivo at 0.3 mg/kg was 24%.
As to `COc1c(Cl)cc(C(C)C)c(/C=C/C(O)CC(O)CC(=O)O)c1-c1ccc(F)cc1` (centres unmarked), the IC50 at HMG-CoA Reductase is 18.7 nM. Further, the inhibition in vivo at 0.3 mg/kg with biosynthesis of sterol (po) is 71%.
The like results for `COc1c(C)cc(C(C)C)c(/C=C/C(O)CC(O)CC(=O)O)c1-c1ccc(F)cc1` (centres unmarked) were, in that order, 16.6 nM and 65%.
Regarding `COCCOc1c(OC)cc(C(C)C)c(/C=C/C(O)CC(O)CC(=O)O)c1-c1ccc(F)cc1` (centres unmarked), the IC50 at HMG-CoA Reductase turned out to be 25.6 nM. For the same compound, the inhibition in vivo at 0.3 mg/kg with biosynthesis of sterol (po) came to 60%.
The matching figures for `COCCOCCOc1cc(C(C)C)c(/C=C/C(O)CC(O)CC(=O)O)c(-c2ccc(F)cc2)c1OC` (centres unmarked): 26.4 nM and 62%.
